According to ChEMBL document CHEMBL1909046, “DrugMatrix in vitro pharmacology data”:

Tests used:
Glycine receptor = Glycine receptor (Rattus norvegicus, UniProt P22771+P24524+P07727+P20781); type: cell membranes, Wistar, Spinal cord, Membrane; further: in other assays of this panel Not Active means under 50% inhibition at 10 µM
[1] = target: T1, 3-hydroxy-3-methylglutaryl-coenzyme A reductase (Homo sapiens, UniProt P04035); parameters: species or system Escherichia coli;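 further: enzyme inhibition assay of HMG-CoA reductase using radiolabeled [14C]HMG-CoA as substrate; in other assays of this panel Not Active means under 50% inhibition at 10 µM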
T1 sequence (P04035 whole entry): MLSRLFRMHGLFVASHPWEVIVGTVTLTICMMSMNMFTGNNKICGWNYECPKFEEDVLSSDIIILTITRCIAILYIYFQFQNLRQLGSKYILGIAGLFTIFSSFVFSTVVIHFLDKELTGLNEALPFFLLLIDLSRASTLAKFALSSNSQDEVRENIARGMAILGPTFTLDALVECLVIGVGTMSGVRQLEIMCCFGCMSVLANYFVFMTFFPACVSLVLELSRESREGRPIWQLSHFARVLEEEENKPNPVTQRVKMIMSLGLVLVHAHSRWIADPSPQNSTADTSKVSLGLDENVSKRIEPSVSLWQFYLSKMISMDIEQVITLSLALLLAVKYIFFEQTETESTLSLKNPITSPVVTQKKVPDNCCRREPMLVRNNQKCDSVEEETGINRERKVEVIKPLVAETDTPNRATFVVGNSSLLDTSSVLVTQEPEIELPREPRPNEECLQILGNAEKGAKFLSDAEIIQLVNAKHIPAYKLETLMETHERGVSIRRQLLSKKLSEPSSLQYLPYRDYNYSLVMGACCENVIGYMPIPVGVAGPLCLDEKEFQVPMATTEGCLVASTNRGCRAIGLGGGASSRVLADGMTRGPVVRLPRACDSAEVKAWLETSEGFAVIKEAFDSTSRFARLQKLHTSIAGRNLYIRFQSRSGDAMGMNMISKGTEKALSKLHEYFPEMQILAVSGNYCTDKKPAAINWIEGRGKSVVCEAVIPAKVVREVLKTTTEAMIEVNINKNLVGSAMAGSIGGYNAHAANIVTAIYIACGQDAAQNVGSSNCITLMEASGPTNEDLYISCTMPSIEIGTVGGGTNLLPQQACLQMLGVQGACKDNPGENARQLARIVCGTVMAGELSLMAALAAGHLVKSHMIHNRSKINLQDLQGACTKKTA

[2] = target: Voltage-gated inwardly rectifying potassium channel KCNH2 (Homo sapiens, UniProt Q12809); details: hek293; further: in other assays of this panel Not Active means under 50% inhibition at 10 µM
[3] = target: T2, Alpha-2A adrenergic receptor (Homo sapiens, UniProt P08913); type: cell membranes, Sf9, Membrane; details: sf9; further: in other assays of this panel Not Active means under 50% inhibition at 10 µM
T2 sequence (P08913 whole entry): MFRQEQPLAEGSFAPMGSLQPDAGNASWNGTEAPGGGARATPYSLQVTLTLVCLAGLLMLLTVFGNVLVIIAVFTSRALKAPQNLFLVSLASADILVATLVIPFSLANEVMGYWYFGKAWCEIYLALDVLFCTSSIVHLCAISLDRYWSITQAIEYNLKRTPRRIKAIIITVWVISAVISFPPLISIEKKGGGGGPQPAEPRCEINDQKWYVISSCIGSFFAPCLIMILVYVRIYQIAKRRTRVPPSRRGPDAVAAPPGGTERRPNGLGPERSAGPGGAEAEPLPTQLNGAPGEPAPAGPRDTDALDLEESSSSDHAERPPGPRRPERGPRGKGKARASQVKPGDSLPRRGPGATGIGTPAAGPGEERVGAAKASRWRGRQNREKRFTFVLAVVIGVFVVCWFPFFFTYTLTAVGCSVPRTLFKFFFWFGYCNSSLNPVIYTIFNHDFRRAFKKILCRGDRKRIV

Cytochrome P450 1A2 = target: T3, Cytochrome P450 1A2 (Homo sapiens, UniProt P05177); details: bti-tn-5b1-4; further: in other assays of this panel Not Active means under 50% inhibition at 10 µM
T3 sequence (P05177 whole entry): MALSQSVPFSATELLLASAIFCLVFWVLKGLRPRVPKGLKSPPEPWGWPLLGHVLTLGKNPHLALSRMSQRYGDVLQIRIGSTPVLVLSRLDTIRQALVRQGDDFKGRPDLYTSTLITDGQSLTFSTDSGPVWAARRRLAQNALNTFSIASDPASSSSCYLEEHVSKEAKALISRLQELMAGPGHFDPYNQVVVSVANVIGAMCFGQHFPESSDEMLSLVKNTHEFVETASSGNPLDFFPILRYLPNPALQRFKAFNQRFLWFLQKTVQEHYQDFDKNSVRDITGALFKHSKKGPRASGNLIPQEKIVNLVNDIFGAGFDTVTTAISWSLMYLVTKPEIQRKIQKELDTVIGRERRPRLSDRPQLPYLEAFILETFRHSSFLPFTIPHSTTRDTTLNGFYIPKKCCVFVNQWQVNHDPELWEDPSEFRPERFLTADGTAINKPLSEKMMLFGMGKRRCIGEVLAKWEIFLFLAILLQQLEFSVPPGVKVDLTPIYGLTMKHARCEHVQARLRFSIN

[4] = target: Protein kinase C alpha type (Homo sapiens, UniProt P17252); type: cell-based; details: sf9
D(1A) dopamine receptor = D(1A) dopamine receptor (Homo sapiens, UniProt P21728); assay: DRUGMATRIX: Dopamine D1 radioligand binding (ligand: [3H] SCH-23390); type: cell membranes, CHO, Membrane; details: cho; Not Active = under 50% inhibition at 10 µM
Cytochrome P450 2E1 = Cytochrome P450 2E1 (Homo sapiens, UniProt P05181); details: bti-tn-5b1-4; further: in other assays of this panel Not Active means under 50% inhibition at 10 µM
[5] = target: cGMP-specific 3',5'-cyclic phosphodiesterase (Homo sapiens, UniProt O76074); assay: DRUGMATRIX: Phosphodiesterase PDE5 enzyme inhibition (substrate: [3H]cGMP + cGMP); type: tissue-based, Platelet; details: platelet; Not Active = under 50% inhibition at 10 µM
[6] = target: T4, Alpha-1B adrenergic receptor (Rattus norvegicus, UniProt P15823); assay: DRUGMATRIX: Alpha-1B adrenergic receptor radioligand binding (ligand: prazosin); type: cell membranes, Wistar, Liver, Membrane; details: Not Active = under 50% inhibition at 10 µM
T4 sequence (P15823 whole entry): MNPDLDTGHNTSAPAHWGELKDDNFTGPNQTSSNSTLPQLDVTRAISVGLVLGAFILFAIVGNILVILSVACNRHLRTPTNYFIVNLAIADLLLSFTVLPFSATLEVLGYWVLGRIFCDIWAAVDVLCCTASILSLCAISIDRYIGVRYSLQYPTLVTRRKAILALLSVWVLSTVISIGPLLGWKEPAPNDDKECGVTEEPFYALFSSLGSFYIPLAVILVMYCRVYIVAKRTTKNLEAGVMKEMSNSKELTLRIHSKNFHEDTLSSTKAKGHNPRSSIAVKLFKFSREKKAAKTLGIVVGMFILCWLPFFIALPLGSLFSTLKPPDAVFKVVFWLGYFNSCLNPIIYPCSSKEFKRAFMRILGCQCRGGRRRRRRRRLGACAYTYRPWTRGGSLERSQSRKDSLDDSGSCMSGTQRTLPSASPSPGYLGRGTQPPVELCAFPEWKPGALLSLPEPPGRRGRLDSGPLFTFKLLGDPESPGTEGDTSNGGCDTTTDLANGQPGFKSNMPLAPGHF

Chain of Voltage-gated inwardly rectifying potassium channel KCNH2 (Q12809 whole entry): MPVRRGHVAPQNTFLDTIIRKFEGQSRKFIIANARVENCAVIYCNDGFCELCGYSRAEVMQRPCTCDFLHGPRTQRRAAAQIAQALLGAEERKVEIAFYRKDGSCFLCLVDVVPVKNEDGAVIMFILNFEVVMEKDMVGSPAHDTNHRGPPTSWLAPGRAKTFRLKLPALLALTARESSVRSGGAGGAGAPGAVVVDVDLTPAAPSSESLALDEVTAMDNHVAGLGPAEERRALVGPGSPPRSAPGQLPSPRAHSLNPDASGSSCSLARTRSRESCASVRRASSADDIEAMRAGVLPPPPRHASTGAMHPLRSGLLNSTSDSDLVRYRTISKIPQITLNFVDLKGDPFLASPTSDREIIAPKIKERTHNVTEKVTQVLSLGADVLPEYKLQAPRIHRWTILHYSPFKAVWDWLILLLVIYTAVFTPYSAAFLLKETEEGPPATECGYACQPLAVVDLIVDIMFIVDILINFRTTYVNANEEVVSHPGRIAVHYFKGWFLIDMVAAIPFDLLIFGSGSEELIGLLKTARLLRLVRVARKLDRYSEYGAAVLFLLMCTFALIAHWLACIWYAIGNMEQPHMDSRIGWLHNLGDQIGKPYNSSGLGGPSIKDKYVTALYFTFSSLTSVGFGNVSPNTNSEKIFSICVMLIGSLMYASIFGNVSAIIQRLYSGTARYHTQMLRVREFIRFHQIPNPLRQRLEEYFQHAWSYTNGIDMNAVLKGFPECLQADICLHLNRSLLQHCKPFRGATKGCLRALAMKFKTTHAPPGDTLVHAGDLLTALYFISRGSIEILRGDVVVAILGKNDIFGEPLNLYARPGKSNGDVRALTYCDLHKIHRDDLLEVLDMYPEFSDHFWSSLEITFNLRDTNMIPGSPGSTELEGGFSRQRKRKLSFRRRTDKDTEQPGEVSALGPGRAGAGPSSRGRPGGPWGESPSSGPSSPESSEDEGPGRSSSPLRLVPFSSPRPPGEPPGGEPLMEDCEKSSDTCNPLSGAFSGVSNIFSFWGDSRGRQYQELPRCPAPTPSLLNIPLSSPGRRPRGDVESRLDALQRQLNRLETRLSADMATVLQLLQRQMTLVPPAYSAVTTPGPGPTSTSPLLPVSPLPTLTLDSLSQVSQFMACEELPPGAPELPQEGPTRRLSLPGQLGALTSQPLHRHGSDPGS
Chain of Cytochrome P450 2E1 (P05181 whole entry): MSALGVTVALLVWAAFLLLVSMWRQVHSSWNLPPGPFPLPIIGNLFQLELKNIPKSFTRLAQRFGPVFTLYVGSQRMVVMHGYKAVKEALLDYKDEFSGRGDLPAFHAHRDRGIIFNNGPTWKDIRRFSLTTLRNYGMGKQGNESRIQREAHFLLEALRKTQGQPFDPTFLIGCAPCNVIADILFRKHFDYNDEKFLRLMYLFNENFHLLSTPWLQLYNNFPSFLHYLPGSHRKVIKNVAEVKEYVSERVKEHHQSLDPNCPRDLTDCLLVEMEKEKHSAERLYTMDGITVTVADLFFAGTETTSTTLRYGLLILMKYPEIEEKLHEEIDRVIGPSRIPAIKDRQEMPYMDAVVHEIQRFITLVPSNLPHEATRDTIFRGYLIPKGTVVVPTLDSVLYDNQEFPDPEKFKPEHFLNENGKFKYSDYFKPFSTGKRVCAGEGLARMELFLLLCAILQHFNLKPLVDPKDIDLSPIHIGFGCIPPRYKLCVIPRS
Chain of D(1A) dopamine receptor (P21728 whole entry): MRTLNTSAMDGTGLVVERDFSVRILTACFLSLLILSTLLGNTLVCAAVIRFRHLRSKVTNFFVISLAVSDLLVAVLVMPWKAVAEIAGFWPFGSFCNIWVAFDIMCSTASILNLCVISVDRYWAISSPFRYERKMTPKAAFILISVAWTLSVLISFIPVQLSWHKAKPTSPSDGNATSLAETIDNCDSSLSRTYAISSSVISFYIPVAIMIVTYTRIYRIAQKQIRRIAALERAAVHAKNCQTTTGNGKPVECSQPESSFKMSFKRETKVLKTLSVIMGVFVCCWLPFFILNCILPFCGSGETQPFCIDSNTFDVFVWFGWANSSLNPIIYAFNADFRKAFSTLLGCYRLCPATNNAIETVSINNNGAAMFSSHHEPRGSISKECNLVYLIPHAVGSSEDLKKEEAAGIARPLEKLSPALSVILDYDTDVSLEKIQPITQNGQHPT

CARBOPLATIN
Not Active: IC50 (Glycine receptor) | Ki (Glycine receptor) | IC50 [1] | Ki [1] | IC50 [2] | Ki [2] | IC50 [3] | Ki [3] | IC50 (Cytochrome P450 1A2) | Ki (Cytochrome P450 1A2) | IC50 [4] | Ki [4] | IC50 (D(1A) dopamine receptor) | Ki (D(1A) dopamine receptor) | IC50 (Cytochrome P450 2E1) | Ki (Cytochrome P450 2E1) | IC50 [5] | Ki [5] | IC50 [6] | Ki [6]
